Results from US8846736B2, “Pyrrole inhibitors of S-nitrosoglutathione reductase as therapeutic agents” (N30 Pharmaceuticals, Inc., priority 2008, dated 2014).
pIC50: −log10 of the molar value.

These molecules were tested against T1, GSNOR (GSNO Reductase) (Homo sapiens, UniProt P11766) (assay: GSNOR assay (in vitro inhibition of GSNOR activity, change in 340 nm absorbance)). Conditions: GSNOR inhibitor activity by the assay of Example 2; 0.240 mM GSNO, 0.300 mM NADH, pH 7.4, 25° C.; values given as 'about' bounds.
T1 construct: made in house; host or cells: E. coli (arabinose-induced)
T1 sequence (P11766 whole entry): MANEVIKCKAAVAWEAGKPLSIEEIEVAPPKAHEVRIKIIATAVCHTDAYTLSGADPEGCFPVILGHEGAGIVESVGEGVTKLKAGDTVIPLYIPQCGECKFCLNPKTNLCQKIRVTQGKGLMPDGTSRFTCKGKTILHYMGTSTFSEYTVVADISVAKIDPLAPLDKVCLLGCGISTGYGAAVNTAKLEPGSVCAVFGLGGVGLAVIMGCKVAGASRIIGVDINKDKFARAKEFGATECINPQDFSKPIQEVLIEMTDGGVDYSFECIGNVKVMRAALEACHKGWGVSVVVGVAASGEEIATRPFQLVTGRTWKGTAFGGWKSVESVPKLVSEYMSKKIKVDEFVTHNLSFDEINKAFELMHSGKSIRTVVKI
Assay type: biochemical
Experimental: Various compounds were tested in vitro for their ability to inhibit GSNOR activity. Representative compounds and their corresponding GSNOR activity are described in a paragraph before Table 1 above. GSNOR expression and purification is described in Biochemistry 2000, 39, 10720-10729.
Pre-cultures were grown from stabs of a GSNOR glycerol stock in 2XYT media containing 100 ug/ml ampicillin after an overnight incubation at 37° C. Cells were then added to fresh 2XYT (4 L) containing ampicillin and grown to an OD (A600) of 0.6-0.9 at 37° C. before induction. GSNOR expression was induced with 0.1% arabinose in an overnight incubation at 20° C.
E. coli cell paste was lysed by nitrogen cavitation and the clarified lysate purified by Ni affinity chromatography on an AKTA FPLC (Amersham Pharmacia). The column was eluted in 20 mM Tris pH 8.0/250 mM NaCl with a 0-500 mM imidazole gradient. […] GSNOR was recovered in the flowthrough fraction and for crystallography is further purified by Q-Sepharose and Heparin flowthrough chromatography in 20 mM Tris pH 8.0, 1 mM DTT, 10 uM ZnSO4.
GSNO and Enzyme/NADH Solutions are made up fresh each day. The Solutions are filtered and allowed to warm to room temperature. GSNO Solution: 100 mM NaPO4 (pH 7.4), 0.480 mM GSNO. 396 μL of GSNO Solution is added to a cuvette followed by 8 μL of test compound in DMSO (or DMSO only for full reaction control) and mixed with the pipette tip. Compounds to be tested are made up at a stock concentration of 10 mM in 100% DMSO. 2 fold serial dilutions are done in 100% DMSO. 8 μL of each dilution are added to an assay so that the final concentration of DMSO in the assay is 1%. The concentrations of compounds tested range from 100 to 0.003 μM. Enzyme/NADH Solution: 100 mM NaPO4 (pH 7.4), 0.600 mM NADH, 1.0 μg/mL GSNO Reductase. 396 μL of the Enzyme/NADH Solution is added to the cuvette to start the reaction. The cuvette is placed in the Cary 3E UV/Visible Spectrophotometer and the change in 340 nm absorbance/min at 25° C. is recorded for 3 minutes. The assays are done in triplicate for each compound concentration. IC50's for each compound are calculated using the standard curve analysis in the Enzyme Kinetics Module of SigmaPlot.
Final assay conditions: 100 mM NaPO4, pH 7.4, 0.240 mM GSNO, 0.300 mM NADH, 0.5 μg/mL GSNO Reductase and 1% DMSO. Final volume: 800 μL/cuvette.

pIC50 | Compound
> 5.30 | COc1ccc(-c2ccc(CCc3nnn[nH]3)n2-c2ccc(C(N)=O)cc2C)cc1 [Compound 4, 4-(2-(2-(1H-tetrazol-5-yl)ethyl)-5-(4-methoxyphenyl)-1H-pyrrol-1-yl)-3-methylbenzamide]
> 6.00 | Oc1ccc(-n2c(CCc3nnn[nH]3)ccc2-c2ccc(-n3ccnc3)cc2)cc1 [Compound 8, 4-(2-(4-(1H-imidazol-1-yl)phenyl)-5-(2-(1H-tetrazol-5-yl)ethyl)-1H-pyrrol-1-yl)phenol]
> 6.00 | COc1cc(Br)ccc1-c1ccc(CCc2nnn[nH]2)n1-c1ccc(C(N)=O)cc1C [Compound 17, 4-(2-(2-(1H-tetrazol-5-yl)ethyl)-5-(4-bromo-2-methoxy-phenyl)-1H-pyrrol-1-yl)-3-methylbenzamide]
> 6.00 | NC(=O)c1ccc(-n2c(CCc3nnn[nH]3)ccc2-c2ccccc2)cc1 [Compound 1, 4-(2-(2-(1H-tetrazol-5-yl)ethyl)-5-phenyl-1H-pyrrol-1-yl)benzamide]
> 6.00 | Cc1cc(NS(C)(=O)=O)ccc1-n1c(Cc2nn[nH]n2)ccc1-c1ccc(-n2ccnc2C)s1 [Compound 22, N-(4-(2-((1H-tetrazol-5-yl)methyl)-5-(5-(2-methyl-1H-imidazol-1-yl)-thiophen-2-yl)-1H-pyrrol-1-yl)-3-methylphenyl)-methanesulfonamide]
> 6.00 | COc1cc(Cl)ccc1-c1ccc(CCc2nnn[nH]2)n1-c1ccc(O)cc1 [Compound 14, 4-(2-(2-(1H-tetrazol-5-yl)ethyl)-5-(4-chloro-2-methoxyphenyl)-1H-pyrrol-1-yl)phenol]
> 6.00 | Cc1nccn1-c1ccc(-c2ccc(Cc3nnn[nH]3)n2-c2ccc(O)cc2)s1 [Compound 20, 4-(2-((1H-tetrazol-5-yl)methyl)-5-(5-(2-methyl-1H-imidazol-1-yl)thiophen-2-yl)-1H-pyrrol-1-yl)phenol]
> 5.30 | COc1ccc(-c2ccc(Cc3nnn[nH]3)n2-c2ccc(C(N)=O)cc2C)cc1 [Compound 10, 4-(2-((1H-tetrazol-5-yl)methyl)-5-(4-methoxyphenyl)-1H-pyrrol-1-yl)-3-methylbenzamide]
> 5.30 | COc1ccc(-c2ccc(CCc3nnn[nH]3)n2-c2ccc(O)cc2)cc1 [Compound 13, 4-(2-(2-(1H-tetrazol-5-yl)ethyl)-5-(4-methoxyphenyl)-1H-pyrrol-1-yl)phenol]
> 6.00 | Cc1cc(C(N)=O)ccc1-n1c(Cc2nnn[nH]2)ccc1-c1ccc(-n2ccnc2C)s1 [Compound 19, 4-(2-((1H-tetrazol-5-yl)methyl)-5-(5-(2-methyl-1H-imidazol-1-yl)thiophen-2-yl)-1H-pyrrol-1-yl)-3-methylbenzamide]
> 5.30 | Oc1ccc(-n2c(Cc3nnn[nH]3)ccc2-c2ccc(Br)cc2)cc1 [Compound 6, 4-(2-((1H-tetrazol-5-yl)methyl)-5-(4-bromophenyl)-1H-pyrrol-1-yl)phenol]
> 6.00 | Cc1cc(C(N)=O)ccc1-n1c(Cc2nnn[nH]2)ccc1-c1ccc(Br)cc1 [Compound 9, 4-(2-((1H-tetrazol-5-yl)methyl)-5-(4-bromophenyl)-1H-pyrrol-1-yl)-3-methylbenzamide]
> 6.00 | COc1cc(Cl)ccc1-c1ccc(CCc2nnn[nH]2)n1-c1ccc(C(N)=O)cc1C [Compound 16, 4-(2-(2-(1H-tetrazol-5-yl)ethyl)-5-(4-chloro-2-methoxy-phenyl)-1H-pyrrol-1-yl)-3-methylbenzamide]
> 6.00 | Cc1cc(C(N)=O)ccc1-n1c(Cc2nnn[nH]2)ccc1-c1ccc(-n2ccnc2C)cc1 [Compound 21, 4-(2-((1H-tetrazol-5-yl)methyl)-5-(4-(2-methyl-1H-imidazol-1-yl)phenyl)-1H-pyrrol-1-yl)-3-methylbenzamide]
> 6.00 | Cc1nccn1-c1ccc(-c2ccc(Cc3nnn[nH]3)n2-c2ccc(O)cc2)cc1 [Compound 18, 4-(2-((1H-tetrazol-5-yl)methyl)-5-(4-(2-methyl-1H-imidazol-1-yl)phenyl)-1H-pyrrol-1-yl)phenol]
> 6.00 | Oc1ccc(-n2c(CCc3nnn[nH]3)ccc2-c2ccc(Br)cc2)cc1 [Compound 5, 4-(2-(2-(1H-tetrazol-5-yl)ethyl)-5-(4-bromophenyl)-1H-pyrrol-1-yl)phenol]
> 6.00 | Cc1cc(C(N)=O)ccc1-n1c(CCc2nnn[nH]2)ccc1-c1ccc(Br)cc1 [Compound 11, 4-(2-(2-(1H-tetrazol-5-yl)ethyl)-5-(4-bromophenyl)-1H-pyrrol-1-yl)-3-methylbenzamide]
> 6.00 | COc1cc(Br)ccc1-c1ccc(CCc2nnn[nH]2)n1-c1ccc(O)cc1 [Compound 15, 4-(2-(2-(1H-tetrazol-5-yl)ethyl)-5-(4-bromo-2-methoxyphenyl)-1H-pyrrol-1-yl)phenol]
> 6.00 | Oc1ccc(-n2c(Cc3nnn[nH]3)ccc2-c2ccc(-n3ccnc3)cc2)cc1 [Compound 12, 4-(2-(4-(1H-imidazol-1-yl)phenyl)-5-((1H-tetrazol-5-yl)methyl)-1H-pyrrol-1-yl)phenol]
> 5.30 | COc1ccc(-c2ccn(CCc3nnn[nH]3)c2-c2ccc(C(N)=O)cc2C)cc1 [Compound 23, 4-(1-(2-(1H-tetrazol-5-yl)ethyl)-3-(4-methoxy-phenyl)-1H-pyrrol-2-yl)-3-methylbenzamide]
